Experimental data taken from publication PMC10897196, “Structure–activity characteristics of phenylalanine analogs selectively transported by L-type amino acid transporter 1 (LAT1)” (Scientific Reports, 2024).
Values joined by “and” are separate entries in the source; they are usually repeats but may differ in a detail not shown here. Identical values can stand only once.

Key:
human LAT2 [1] = molecular target: T1, human LAT2 (Homo sapiens, UniProt Q9UHI5); assay: Inhibition of L-[14C]alanine uptake in HEK293-hLAT2 cells; assay type: cell-based; settings: for Inhibition of LAT2-mediated L-[14C]alanine uptake (in words, rank order): 1 μM L-[14C]alanine, 1 min, compounds at 10, 30, 100 μM; for Ki: L-[14C]alanine uptake, HEK293-hLAT2, mean ± S.E.M., n = 3–4, read-out: Ki (μM) LAT2
T1 construct: expressed in transfected cells
T1 sequence (Q9UHI5 1-535): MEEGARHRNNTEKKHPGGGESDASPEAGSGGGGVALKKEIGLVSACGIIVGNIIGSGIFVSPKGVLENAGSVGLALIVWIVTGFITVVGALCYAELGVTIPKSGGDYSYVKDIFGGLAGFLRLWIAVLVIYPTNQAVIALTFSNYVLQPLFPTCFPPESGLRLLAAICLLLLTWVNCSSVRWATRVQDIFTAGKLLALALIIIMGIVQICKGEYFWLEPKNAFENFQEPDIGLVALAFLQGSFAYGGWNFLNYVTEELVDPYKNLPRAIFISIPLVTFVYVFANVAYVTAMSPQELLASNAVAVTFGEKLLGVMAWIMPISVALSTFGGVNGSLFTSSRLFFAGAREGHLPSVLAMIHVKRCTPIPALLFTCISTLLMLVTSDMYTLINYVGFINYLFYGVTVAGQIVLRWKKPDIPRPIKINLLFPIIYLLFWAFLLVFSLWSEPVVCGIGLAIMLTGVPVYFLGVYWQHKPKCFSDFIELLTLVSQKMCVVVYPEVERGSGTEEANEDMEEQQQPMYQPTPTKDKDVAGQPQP
T1 sequence (P08195 1-529 partner): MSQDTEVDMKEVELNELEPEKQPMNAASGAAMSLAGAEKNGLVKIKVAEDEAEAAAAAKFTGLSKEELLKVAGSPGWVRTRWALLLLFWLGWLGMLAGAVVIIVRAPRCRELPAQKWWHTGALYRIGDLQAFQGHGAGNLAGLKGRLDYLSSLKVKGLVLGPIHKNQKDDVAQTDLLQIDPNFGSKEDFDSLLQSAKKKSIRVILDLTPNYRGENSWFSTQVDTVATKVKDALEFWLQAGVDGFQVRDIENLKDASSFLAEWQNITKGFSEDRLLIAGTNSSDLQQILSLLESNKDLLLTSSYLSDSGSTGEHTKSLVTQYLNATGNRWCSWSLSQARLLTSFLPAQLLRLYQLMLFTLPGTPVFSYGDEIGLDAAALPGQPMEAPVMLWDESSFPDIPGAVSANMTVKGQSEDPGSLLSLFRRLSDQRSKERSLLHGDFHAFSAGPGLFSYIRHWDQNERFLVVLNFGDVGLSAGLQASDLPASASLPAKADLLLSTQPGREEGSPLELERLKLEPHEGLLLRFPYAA
From the text: (§1) In this study, we used the HEK293 cells stably expressing human LAT1 or human LAT2, which form a heterodimeric complex with endogenous 4F2hc (CD98hc), required for plasma membrane localization. We first explored the impact of halogen group positioning in the benzene ring of Phe (Fig. 1) on its interaction with LAT1 and LAT2. […] We conducted inhibition experiments to measure the uptake of L-[^14C]leucine by LAT1 and L-[^14C]alanine by LAT2 in the presence or absence of Phe derivatives with an iodo group at position 2, 3, or 4 in the benzene ring.
(§2) The inhibition experiments were performed as described previously. HEK293-hLAT1 (1.5 × 10^5 cells/well) or HEK293-hLAT2 (2 × 10^5 cells/well) cells were plated onto poly-D-lysine-coated 24-well plates (Corning, New York, USA). Following a 2-day culture period, the uptake of 1 μM L-[^14C]leucine or L-[^14C]alanine was measured for 1 min in the absence or presence of non-radiolabeled test compounds at concentrations of 10, 30, and 100 μM. Radioactivity was quantified using a β-scintillation counter (LSC-3100; Aloka, Tokyo, Japan), and protein concentrations were determined with a Micro BCA Protein Assay Kit (Thermo Fisher Scientific, Rockford, IL). To calculate Ki values, the concentration-dependent uptake of L-[^14C]leucine or L-[^14C]alanine was analyzed in the presence and absence of test compounds[49]. The data were plotted against substrate concentration and fitted to Michaelis–Menten kinetics. Ki values were derived using nonlinear regression analysis with the enzyme kinetics inhibition module in GraphPad Prism software (Version 10.0.2; GraphPad Software Inc., San Diego, CA, USA).

human LAT1 [2] = molecular target: T2, human LAT1 (Homo sapiens, UniProt Q01650); assay: Inhibition of L-[14C]leucine uptake in HEK293-hLAT1 cells; assay type: cell-based; settings: for Inhibition of LAT1-mediated L-[14C]leucine uptake (in words, rank order): 1 μM L-[14C]leucine, 1 min, compounds at 10, 30, 100 μM; for Ki: L-[14C]leucine uptake, HEK293-hLAT1, mean ± S.E.M., n = 3–4, read-out: Ki (μM) LAT1; for Ki ratio (LAT2/LAT1): LAT1 selectivity, LAT2 Ki over LAT1 Ki
T2 construct: expressed in transfected cells
T2 sequence (Q01650 whole entry, one chain of several): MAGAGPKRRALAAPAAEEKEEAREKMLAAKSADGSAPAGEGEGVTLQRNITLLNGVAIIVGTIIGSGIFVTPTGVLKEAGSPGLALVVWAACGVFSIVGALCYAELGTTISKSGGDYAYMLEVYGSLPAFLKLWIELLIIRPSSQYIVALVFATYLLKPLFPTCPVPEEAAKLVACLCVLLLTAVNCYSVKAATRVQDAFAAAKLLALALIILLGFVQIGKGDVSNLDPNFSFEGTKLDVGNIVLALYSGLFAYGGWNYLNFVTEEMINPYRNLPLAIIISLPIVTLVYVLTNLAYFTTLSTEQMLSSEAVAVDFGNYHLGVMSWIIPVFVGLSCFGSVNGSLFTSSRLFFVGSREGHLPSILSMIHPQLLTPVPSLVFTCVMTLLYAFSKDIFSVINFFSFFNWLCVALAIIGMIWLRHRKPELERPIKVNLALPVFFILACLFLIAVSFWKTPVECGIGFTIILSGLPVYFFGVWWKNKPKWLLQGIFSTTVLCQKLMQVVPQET
From the text: as §1, §2

[3] = design: method as in PMID 11901210; settings: correlated with LAT1 Ki; cited from earlier work
human LAT1 [4] = molecular target: T2, human LAT1; assay: Efflux of pre-loaded L-[14C]leucine from HEK293-hLAT1 cells induced by extracellular compounds; assay type: cell-based; settings: for Km / Vmax of efflux (% radioactivity/min): LAT1, L-[14C]leucine efflux, mean ± S.E.M., n = 3; for Km / Vmax of efflux (% radioactivity/min) / LAT1-mediated L-[14C]leucine efflux induced (in words): 1 min; for LAT1-mediated L-[14C]leucine efflux induced (in words): compounds at 10, 30, 100 μM
Experimental: (§3) We evaluated the efflux of pre-loaded L-[^14C]leucine from LAT1 and pre-loaded L-[^14C]alanine from LAT2 induced by extracellularly applied compounds.
(§4) Efflux experiments were performed as described previously. Cells cultured 48 h were pre-loaded with 5 μM L-[^14C]leucine or L-[^14C]alanine for 10 min at 37 °C. The cells were then washed, and the efflux was induced by incubating cells for 1 min in either the absence or presence of non-radiolabeled test compounds at indicated concentrations. The efflux time of 1 min fell within the linear range of time-dependent substrate efflux mediated by LAT1 and LAT2 (Supplementary Fig. S2). Following incubation, the medium was collected and radioactivity was measured in both the medium and the cells. Efflux was quantified as the percentage of radioactivity released into the medium, calculated using the formula: radioactivity of medium/(radioactivity of medium + radioactivity of cells) × 100%.
(§5) The kinetic parameters for the efflux of L-[^14C]leucine or L-[^14C]alanine induced by various concentrations of extracellularly-applied test compounds were analyzed. The baseline efflux values—those obtained in the absence of test compounds—were subtracted from the values measured in the presence of the compounds. The resultant data were fitted to Michaelis–Menten kinetics to determine the Km and Vmax by nonlinear regression analysis using “enzyme kinetics-velocity as a function of substrate” module within GraphPad Prism software.

human LAT2 [5] = molecular target: T1, human LAT2; assay: Efflux of pre-loaded L-[14C]alanine from HEK293-hLAT2 cells induced by extracellular compounds; assay type: cell-based; settings: for Vmax of efflux (% radioactivity/min): LAT2, L-[14C]alanine efflux, mean ± S.E.M., n = 3
Experimental: as §3, §4, §5

| SMILES | Inhibition of LAT2-mediated L-[14C]alanine uptake (in words, rank order) (human LAT2 [1]) | Inhibition of LAT1-mediated L-[14C]leucine uptake (in words, rank order) (human LAT1 [2]) | Ki (human LAT2 [1]) [µM] | Ki (human LAT1 [2]) [µM] | Ki ratio (LAT2/LAT1) (human LAT1 [2]) | Carbonyl oxygen charge [3] | also measured |
| --- | --- | --- | --- | --- | --- | --- | --- |
| N[C@@H](Cc1cccc(I)c1)C(=O)O [3-I-Phe] | 4-I-Phe < 3-I-Phe and 3-Br-Phe < 3-I-Phe | markedly inhibited and 3-Br-Phe < 3-I-Phe |  |  |  |  |  |
| N[C@@H](Cc1ccc(O)c(O)c1)C(=O)O [L-DOPA] |  |  |  |  |  | −0.5633 |  |
| N[C@@H](Cc1ccc(O)cc1)C(=O)O [Tyr] |  |  |  |  |  | −0.5635 |  |
| C[C@](N)(Cc1ccc(O)c(O)c1)C(=O)O [α-methyl-DOPA] |  |  |  |  |  | −0.5558 |  |
| C[C@](N)(Cc1ccc(O)cc1)C(=O)O [α-methyl-Tyr] |  |  |  |  |  | −0.5579 |  |

More lines, main results first:

| Inhibition of LAT2-mediated L-[14C]alanine uptake (in words, rank order) (human LAT2 [1]) | Inhibition of LAT1-mediated L-[14C]leucine uptake (in words, rank order) (human LAT1 [2]) | Ki (human LAT2 [1]) [µM] | Ki (human LAT1 [2]) [µM] | Ki ratio (LAT2/LAT1) (human LAT1 [2]) | SMILES | Carbonyl oxygen charge [3] | also measured |
| --- | --- | --- | --- | --- | --- | --- | --- |
| Phe < 4-I-Phe | comparable to that of Phe |  |  |  | N[C@@H](Cc1ccc(I)cc1)C(=O)O [4-I-Phe] |  |  |
|  | inhibit | 110 ± 20 | 43.5 ± 6.28 | 2.53 | N[C@@H](Cc1ccccc1)C(=O)O [Phe, phenylalanine] |  | Km (human LAT1 [4]): 8.92 ± 1.08 µM; Vmax of efflux (% radioactivity/min) (human LAT1 [4]): 13.32 ± 0.31 % radioactivity/min; Ratio to Vmax of Phe (human LAT1 [4]; LAT1 efflux): (1.00); LAT1-mediated L-[14C]leucine efflux induced (in words) (human LAT1 [4]): induced a notable efflux; Vmax of efflux (% radioactivity/min) (human LAT2 [5]; 1 min): 39.60 ± 0.74 % radioactivity/min; Ratio to Vmax of Phe (human LAT2 [5]; LAT2 efflux): (1.00) |
| minimal inhibition | inhibit | 242 ± 20.8 | 96.8 ± 13.2 | 2.50 | N[C@H](C(=O)O)c1ccccc1 [Phg, L-phenylglycine] |  |  |
| minimal inhibition | inhibit | 1680 ± 272 | 157 ± 19.5 | 10.74 | C[C@](N)(Cc1ccccc1)C(=O)O [α-methyl-Phe, α-Methyl-L-phenylalanine, reference compound] |  | Km (human LAT1 [4]): 67.9 ± 7.39 µM; Vmax of efflux (% radioactivity/min) (human LAT1 [4]): 15.45 ± 0.45 % radioactivity/min; LAT1-mediated L-[14C]leucine efflux induced (in words) (human LAT1 [4]): transported by LAT1 as substrates; Vmax of efflux (% radioactivity/min) (human LAT2 [5]; 1 min): 27.28 ± 0.70 % radioactivity/min; LAT2-mediated L-[14C]alanine efflux induced (in words) (human LAT2 [5]; compounds at 10, 30, 100 μM, 1 min): not efficiently transported by LAT2 |
